Patent US10654808B2, “Tyrosine kinase inhibitor and pharmaceutical composition comprising same” (GUANGDONG RAYNOVENT BIOTECH CO., LTD., priority 2015, dated 2020)
pIC50: −log10 of the molar value.

What was measured:
Type in all cases: biochemical
[1] = target: T1, PDGFRB (Homo sapiens, UniProt P09619); experiment: Z'-LYTE in vitro enzyme activity assay, PDGFRB; conditions: 100 μM ATP, 60 minutes, room temperature; read-out: IC50 detected by Z'-LYTE, PDGFRB
T1 construct: purchased Millipore
Protocol: (§1) The enzyme activity was measured by Z′-LYTE™ Detection Kinase Assay. The IC50 value of the compounds was used as an index to evaluate the inhibitory effect of the compounds on VEGFR2, FGFR1 and PDGFRB.
(§2) Recombinant human VEGFR2 and FGFR1 proteases were purchased from Life technology, PDGFRB Protease was purchased from Millipore.
(§3) Z-LYTE™ Kit Tyr1 and Tyr4 were purchased from Life technology. Multi-microplate reader, Envision (PerkinElmer) read board was used.
(§4) The test compounds were diluted 3 times with a concentration gradient, the final concentration was from 10 μM to 0.17 nM with a total of 11 concentrations, and each concentration had two parallel holes; the content of DMSO in the assay was 1%.
(§5) 40 nM PDGFRB protein kinase, 2 μM Tyr4 peptide, 100 μM ATP, 50 mM HEPES (pH 7.5), 10 mM MgCl2, 1 mM EGTA, 0.01% BRIJ-35, 2 mM MnCl2, 1 mM DTT. The detector plate was Black Proxiplate 384-Plus plate (PerkinElmer), the reaction was performed at room temperature for 60 minutes, and the reaction system was 10 μl.
(§6) The reaction was stopped by adding 5 μl of DV reagent B (1:128) to the kinase reaction solution and incubated at 23° C. for 60 minutes. The Envision instrument was used to read the plate.
(§7) The data was converted to phosphorylation rate and inhibition rate and the 4 parameter curve fitting (Model 205 in XLFIT5, iDBS) was used to get IC50 data of the compounds.

[2] = target: T2, VEGFR2 (Homo sapiens, UniProt P35968); experiment: Z'-LYTE in vitro enzyme activity assay, VEGFR2; conditions: 100 μM ATP, 60 minutes, room temperature; read-out: IC50 detected by Z'-LYTE, VEGFR2
T2 construct: purchased Life technology
T2 sequence (P35968 20-1356): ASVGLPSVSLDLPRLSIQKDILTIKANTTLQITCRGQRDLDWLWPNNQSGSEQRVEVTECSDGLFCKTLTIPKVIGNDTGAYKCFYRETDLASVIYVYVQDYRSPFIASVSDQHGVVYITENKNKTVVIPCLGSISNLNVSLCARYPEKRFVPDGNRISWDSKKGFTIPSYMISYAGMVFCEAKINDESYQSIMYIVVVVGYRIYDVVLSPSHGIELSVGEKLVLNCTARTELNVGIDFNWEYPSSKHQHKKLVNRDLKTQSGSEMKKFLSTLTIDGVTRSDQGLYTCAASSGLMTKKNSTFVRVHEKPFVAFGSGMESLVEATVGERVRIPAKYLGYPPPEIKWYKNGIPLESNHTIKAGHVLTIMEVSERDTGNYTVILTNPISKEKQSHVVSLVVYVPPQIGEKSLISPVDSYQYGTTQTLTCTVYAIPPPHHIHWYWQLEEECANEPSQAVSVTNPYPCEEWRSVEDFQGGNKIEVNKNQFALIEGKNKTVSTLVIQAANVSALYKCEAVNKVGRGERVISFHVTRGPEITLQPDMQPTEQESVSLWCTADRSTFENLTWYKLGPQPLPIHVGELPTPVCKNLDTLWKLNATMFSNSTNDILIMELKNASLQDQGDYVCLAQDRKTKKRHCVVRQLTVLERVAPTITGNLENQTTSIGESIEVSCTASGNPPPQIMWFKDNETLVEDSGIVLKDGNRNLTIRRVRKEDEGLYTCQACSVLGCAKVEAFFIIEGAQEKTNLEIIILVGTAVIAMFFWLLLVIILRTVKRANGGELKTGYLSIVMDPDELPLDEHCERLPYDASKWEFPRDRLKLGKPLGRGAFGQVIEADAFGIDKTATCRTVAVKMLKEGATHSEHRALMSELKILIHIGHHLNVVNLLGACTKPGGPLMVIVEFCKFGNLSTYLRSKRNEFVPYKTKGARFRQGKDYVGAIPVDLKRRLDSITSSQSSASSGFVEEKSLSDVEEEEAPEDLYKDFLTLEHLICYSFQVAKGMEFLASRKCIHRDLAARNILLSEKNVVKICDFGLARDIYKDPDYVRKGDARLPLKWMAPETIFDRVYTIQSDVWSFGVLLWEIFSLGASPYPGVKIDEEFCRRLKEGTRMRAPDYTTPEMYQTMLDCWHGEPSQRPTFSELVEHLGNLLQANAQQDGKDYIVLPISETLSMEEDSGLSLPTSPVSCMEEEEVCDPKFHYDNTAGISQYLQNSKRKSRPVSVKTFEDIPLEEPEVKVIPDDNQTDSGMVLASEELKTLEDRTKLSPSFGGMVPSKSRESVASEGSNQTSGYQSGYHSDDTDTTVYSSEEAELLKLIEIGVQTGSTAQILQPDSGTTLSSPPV
Protocol: as §1, §2, §3, §4
3 nM VEGFR2 protein kinase, 2 μM Tyr1 peptide, 100 μM ATP, 50 mM HEPES (pH 7.5), 10 mM MgCl2, 1 mM EGTA, 0.01% BRIJ-35. The detector plate was Black Proxiplate 384-Plus plate (PerkinElmer), the reaction was performed at room temperature for 60 minutes, and the reaction system was 10 μl.
as §6, §7

[3] = target: T3, FGFR1 (Homo sapiens, UniProt P11362); experiment: Z'-LYTE in vitro enzyme activity assay, FGFR1; conditions: 25 μM ATP, 60 minutes, room temperature; read-out: IC50 detected by Z'-LYTE, FGFR1
T3 construct: purchased Life technology
T3 sequence (P11362 22-822): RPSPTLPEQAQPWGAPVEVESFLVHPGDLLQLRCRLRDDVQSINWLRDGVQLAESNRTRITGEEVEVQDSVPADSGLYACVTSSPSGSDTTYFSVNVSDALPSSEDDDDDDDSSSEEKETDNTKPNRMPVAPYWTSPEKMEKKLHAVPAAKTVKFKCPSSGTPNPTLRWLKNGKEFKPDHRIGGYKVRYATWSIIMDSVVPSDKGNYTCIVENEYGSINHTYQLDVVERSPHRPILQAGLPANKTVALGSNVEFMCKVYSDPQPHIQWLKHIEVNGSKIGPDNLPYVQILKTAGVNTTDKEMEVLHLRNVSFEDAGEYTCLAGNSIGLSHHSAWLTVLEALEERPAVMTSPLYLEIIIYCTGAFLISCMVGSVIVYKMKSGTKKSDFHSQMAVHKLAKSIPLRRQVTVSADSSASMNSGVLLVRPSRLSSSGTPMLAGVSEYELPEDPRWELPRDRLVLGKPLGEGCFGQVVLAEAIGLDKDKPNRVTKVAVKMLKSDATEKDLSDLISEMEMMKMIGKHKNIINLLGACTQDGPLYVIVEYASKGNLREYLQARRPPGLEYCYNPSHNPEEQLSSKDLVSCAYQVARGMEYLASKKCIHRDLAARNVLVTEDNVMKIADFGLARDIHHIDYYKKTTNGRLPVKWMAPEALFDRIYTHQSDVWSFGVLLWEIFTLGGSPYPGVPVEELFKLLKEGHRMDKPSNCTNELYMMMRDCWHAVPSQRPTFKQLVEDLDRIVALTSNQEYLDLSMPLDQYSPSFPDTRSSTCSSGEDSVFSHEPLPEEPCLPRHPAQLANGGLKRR
Protocol: as §1, §2, §3, §4
as §5, with “1” for “40”, “FGFR1” for “PDGFRB”, “25” for “100”
as §6, §7

T1 sequence (P09619 33-1106): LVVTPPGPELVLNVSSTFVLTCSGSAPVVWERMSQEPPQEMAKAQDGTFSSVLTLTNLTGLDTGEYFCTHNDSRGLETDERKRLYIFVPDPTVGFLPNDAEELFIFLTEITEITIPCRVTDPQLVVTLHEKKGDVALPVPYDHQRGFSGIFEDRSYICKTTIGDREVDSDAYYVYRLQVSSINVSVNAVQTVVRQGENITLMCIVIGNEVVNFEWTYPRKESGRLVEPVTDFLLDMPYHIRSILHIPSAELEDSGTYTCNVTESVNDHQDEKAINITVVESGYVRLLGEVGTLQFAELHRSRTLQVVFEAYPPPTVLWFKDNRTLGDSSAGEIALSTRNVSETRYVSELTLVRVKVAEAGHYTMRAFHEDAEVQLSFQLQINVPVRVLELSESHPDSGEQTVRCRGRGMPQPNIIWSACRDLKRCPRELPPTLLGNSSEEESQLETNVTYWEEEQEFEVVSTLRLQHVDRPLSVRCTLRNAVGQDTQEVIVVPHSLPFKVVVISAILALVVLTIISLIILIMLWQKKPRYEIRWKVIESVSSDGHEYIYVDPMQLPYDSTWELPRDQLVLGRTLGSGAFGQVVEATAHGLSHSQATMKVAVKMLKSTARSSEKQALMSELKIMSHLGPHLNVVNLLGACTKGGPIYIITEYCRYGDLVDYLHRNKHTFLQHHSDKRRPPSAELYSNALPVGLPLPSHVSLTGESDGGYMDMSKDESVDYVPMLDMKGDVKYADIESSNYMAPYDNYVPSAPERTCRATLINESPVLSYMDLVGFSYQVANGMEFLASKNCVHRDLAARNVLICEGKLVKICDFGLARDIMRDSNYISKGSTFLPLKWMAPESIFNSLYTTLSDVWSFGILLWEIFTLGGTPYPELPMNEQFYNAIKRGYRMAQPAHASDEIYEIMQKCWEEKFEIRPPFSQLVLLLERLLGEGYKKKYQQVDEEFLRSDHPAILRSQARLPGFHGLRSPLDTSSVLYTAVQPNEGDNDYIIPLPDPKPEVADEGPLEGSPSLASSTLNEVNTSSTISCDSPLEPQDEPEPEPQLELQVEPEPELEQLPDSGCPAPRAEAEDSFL

| Compound | pIC50 [1] | pIC50 [2] | pIC50 [3] |
| --- | --- | --- | --- |
| COc1cc2nccc(Oc3ccc(NC(=O)N4CC[C@H](F)C4)c(Cl)c3F)c2cc1C(N)=O [Example 117] | 6.70 to 7.30 | 6.70 to 7.30 | 6.00 to 6.70 |
| COc1cc2nccc(Oc3ccc(NC(=O)N4CC[C@H](O)C4)c(Cl)c3F)c2cc1C(N)=O [Example 118] | 6.70 to 7.30 | 6.70 to 7.30 | 6.00 to 6.70 |
| COc1cc2nccc(Oc3ccc(NC(=O)N4CC(F)(F)C4)c(Cl)c3F)c2cc1C(N)=O [Example 119] | > 7.30 | 6.70 to 7.30 | 6.00 to 6.70 |
| COc1cc2nccc(Oc3ccc(NC(=O)N4CCCC4)c(Cl)c3F)c2cc1C(N)=O [Example 120] | 6.70 to 7.30 | 6.70 to 7.30 | 6.00 to 6.70 |
| COc1cc2nccc(Oc3ccc(NC(=O)N4CC(O)C4)c(Cl)c3F)c2cc1C(N)=O [Example 121] | 6.00 to 6.70 | 6.70 to 7.30 | 6.00 to 6.70 |
| COc1cc2nccc(Oc3ccc(NC(=O)N4CC(F)C4)c(Cl)c3F)c2cc1C(N)=O [Example 122] | > 7.30 | 6.70 to 7.30 | 6.00 to 6.70 |
| COc1cc2nccc(Oc3ccc(Nc4c(NCCN(C)C)c(=O)c4=O)c(Cl)c3)c2cc1C(N)=O [Example 136] | 6.00 to 6.70 | 6.00 to 6.70 | 6.00 to 6.70 |
| COc1cc2nccc(Oc3ccc(Nc4c(NCCC#N)c(=O)c4=O)c(Cl)c3)c2cc1C(N)=O [Example 137] | 6.00 to 6.70 | 6.00 to 6.70 | 6.00 to 6.70 |
| COc1cc2nccc(Oc3ccc(Nc4c(NCC(F)(F)F)c(=O)c4=O)c(Cl)c3)c2cc1C(N)=O [Example 138] | 6.00 to 6.70 | 6.00 to 6.70 | 6.00 to 6.70 |
| COc1cc2nccc(Oc3ccc(Nc4c(NC5CCOCC5)c(=O)c4=O)c(Cl)c3)c2cc1C(N)=O [Example 139] | 6.00 to 6.70 | 6.00 to 6.70 | 6.00 to 6.70 |
| CCCNc1c(Nc2ccc(Oc3ccnc4cc(OC)c(C(N)=O)cc34)cc2Cl)c(=O)c1=O [Example 140] | 6.00 to 6.70 | 6.00 to 6.70 | 6.00 to 6.70 |
| COCCCNc1c(Nc2ccc(Oc3ccnc4cc(OC)c(C(N)=O)cc34)cc2Cl)c(=O)c1=O [Example 141] | 6.00 to 6.70 | 6.00 to 6.70 | 6.00 to 6.70 |
| COc1cc2nccc(Oc3ccc(Nc4c(NCC(C)C)c(=O)c4=O)c(Cl)c3)c2cc1C(N)=O [Example 144] | 6.00 to 6.70 | 6.00 to 6.70 | 6.00 to 6.70 |
| COc1cc2nccc(Oc3ccc(Nc4c(NC5CCC5)c(=O)c4=O)c(Cl)c3)c2cc1C(N)=O [Example 145] | > 7.30 | 6.00 to 6.70 | 6.00 to 6.70 |
| COc1cc2nccc(Oc3ccc(Nc4c(Nc5cccnc5)c(=O)c4=O)c(Cl)c3)c2cc1C(N)=O [Example 147] | 6.00 to 6.70 | 6.00 to 6.70 | 6.00 to 6.70 |
| COc1cc2nccc(Oc3ccc(Nc4c(NCc5ccccc5)c(=O)c4=O)c(Cl)c3)c2cc1C(N)=O [Example 148] | > 7.30 | 6.00 to 6.70 | 6.00 to 6.70 |
| COc1cc2nccc(Oc3ccc(Nc4c(NCc5cccnc5)c(=O)c4=O)c(Cl)c3)c2cc1C(N)=O [Example 149] | 6.00 to 6.70 | 6.00 to 6.70 | 6.00 to 6.70 |
| COc1cc2nccc(Oc3ccc(Nc4c(NCc5ccccn5)c(=O)c4=O)c(Cl)c3)c2cc1C(N)=O [Example 150] | > 7.30 | 6.00 to 6.70 | 6.00 to 6.70 |
| COc1cc2nccc(Oc3ccc(Nc4c(NCc5ccc(Cl)cc5)c(=O)c4=O)c(Cl)c3)c2cc1C(N)=O [Example 151] | > 7.30 | 6.00 to 6.70 | 6.00 to 6.70 |

Next, values leading:

| pIC50 [1] | pIC50 [2] | pIC50 [3] | Compound |
| --- | --- | --- | --- |
| 6.00 to 6.70 | 6.00 to 6.70 | 6.00 to 6.70 | COc1cc2nccc(Oc3ccc(Nc4c(NCc5ccncc5)c(=O)c4=O)c(Cl)c3)c2cc1C(N)=O [Example 153] |
| 6.00 to 6.70 | 6.00 to 6.70 | 6.00 to 6.70 | COc1cc2nccc(Oc3ccc(Nc4c(NCCc5ccccc5)c(=O)c4=O)c(Cl)c3)c2cc1C(N)=O [Example 154] |
| > 7.30 | 6.00 to 6.70 | 6.00 to 6.70 | COc1cc2nccc(Oc3ccc(Nc4c(Nc5cccc(C(F)(F)F)c5)c(=O)c4=O)c(Cl)c3)c2cc1C(N)=O [Example 155] |
| 6.00 to 6.70 | 6.00 to 6.70 | 6.00 to 6.70 | COc1cc2nccc(Oc3ccc4nc(NCC(C)C)sc4c3)c2cc1C(N)=O [Example 156] |
| 6.00 to 6.70 | 6.00 to 6.70 | 6.00 to 6.70 | COc1cc2nccc(Oc3ccc4nc(NCC(F)F)sc4c3)c2cc1C(N)=O [Example 157] |
| 6.00 to 6.70 | 6.00 to 6.70 | 6.00 to 6.70 | COc1cc2nccc(Oc3ccc4nc(NC5CCC5)sc4c3)c2cc1C(N)=O [Example 158] |
| 6.00 to 6.70 | 6.00 to 6.70 | 6.00 to 6.70 | COc1cc2nccc(Oc3ccc4nc(NCc5cccc(C(F)(F)F)c5)sc4c3)c2cc1C(N)=O [Example 161] |
| 6.00 to 6.70 | 6.00 to 6.70 | 6.00 to 6.70 | COc1cc2nccc(Oc3ccc4[nH]cc(C#N)c4c3)c2cc1C(N)=O [Example 162] |
| 6.00 to 6.70 | 6.00 to 6.70 | 6.00 to 6.70 | COc1cc2nccc(Oc3ccc4c(c3)CN(CC(F)F)C(=O)N4)c2cc1C(N)=O [Example 164] |
| 6.00 to 6.70 | 6.00 to 6.70 | 6.00 to 6.70 | COc1cc2nccc(Oc3ccc(N4CCNC4=O)c(Cl)c3)c2cc1C(N)=O [Example 165] |
| 6.70 to 7.30 | > 7.30 | 6.00 to 6.70 | COc1cc2nccc(Oc3ccc(N4C(=O)CNC4=S)c(Cl)c3)c2cc1C(N)=O [Example 166] |
| > 7.30 | > 7.30 | 6.00 to 6.70 | COc1cc2nccc(Oc3ccc(N4CC(=O)NC4=S)c(Cl)c3)c2cc1C(N)=O [Example 167] |
| 6.00 to 6.70 | 6.00 to 6.70 | 6.00 to 6.70 | COc1cc2nccc(Oc3ccc(NC(=O)C4(C(=O)NC5CC5)CC4)c(Cl)c3)c2cc1C(N)=O [Example 168] |
| 6.00 to 6.70 | > 7.30 | 6.00 to 6.70 | COc1ccc2c(Oc3ccc(NC(=S)NC4CC4)c(Cl)c3)ccnc2c1 [Example 170] |
| 6.00 to 6.70 | 6.00 to 6.70 | 6.00 to 6.70 | COc1ccc2c(Oc3ccc(NC(=S)N4CC(F)(F)C4)c(Cl)c3)ccnc2c1 [Example 171] |
| 6.00 to 6.70 | 6.00 to 6.70 | 6.00 to 6.70 | CC1(C)NC(=O)c2cc3c(Oc4ccc(NC(=S)NC5CC5)c(Cl)c4)ccnc3cc2O1 [Example 172] |
| 6.00 to 6.70 | 6.00 to 6.70 | 6.00 to 6.70 | CCC1NC(=O)c2cc3c(Oc4ccc(NC(=S)NC5CC5)c(Cl)c4)ccnc3cc2O1 (stereo not drawn) [Example 173] |
| 6.00 to 6.70 | 6.00 to 6.70 | 6.00 to 6.70 | COc1cc2nccc(Oc3ccc(NC(=S)NC4CC4)c(Cl)c3)c2cc1C(C)(C)O [Example 175] |
| 6.00 to 6.70 | 6.00 to 6.70 | 6.00 to 6.70 | COc1cc2nccc(Oc3ccc(CC(=O)N4CCCC4)cc3)c2cc1C(N)=O [Example 176] |
| 6.70 to 7.30 | 6.00 to 6.70 | 6.00 to 6.70 | COc1cc2nccc(Oc3ccc(CC(=O)N4CC(F)(F)C4)cc3)c2cc1C(N)=O [Example 177] |
| 6.00 to 6.70 | 6.00 to 6.70 | 6.00 to 6.70 | COC(=O)c1cc2c(Oc3ccc(NC(=S)N4CC(F)(F)C4)c(Cl)c3)ccnc2cc1OC [Example 178] |
